Tested on: Male Syrian hamsters, feed enriched with 0.35% cholesterol
Experiment: Hypocholesterolemic activity of carob fiber and statins in vivo
Parameters: species or system Syrian hamster
Conditions: 28 days, in feed: carob fiber 2.5%, simvastatin 1.5 mg %
Description: Determination of the Hypocholesterolemic Activity of Carob Fiber and Statins In Vivo Hamsters are seen as a suitable animal model for propounding the present invention, even if the metabolic processes in hamsters and humans differ slightly. At all events, the two substances tested here in combination each give alone in humans a reducing effect on the serum cholesterol values, in particular on LDL cholesterol. The effect of a combined administration of carob fiber and a statin, here simvastatin, in this model should therefore also give conclusions for humans. Male Syrian hamsters (100-120 g at the start of the study) received feed enriched with 0.35% cholesterol. […] The hamsters were divided into groups of 9 animals and treated with the test substances over a period of 28 days. After the animals were anesthetized, blood was obtained for determining the serum cholesterol values. The serum cholesterol contents were determined after obtaining the plasma from whole blood using a commercially obtained enzyme test kit. The total cholesterol content of the test groups thus determined were compared with the results of a control group which received no test substances.

With `CCC(C)(C)C(=O)O[C@H]1C[C@@H](C)C=C2C=C[C@H](C)[C@H](CC[C@@H]3C[C@@H](O)CC(=O)O3)[C@H]21` [Simvastatin, simvastatin] the “Total cholesterol in blood serum” value (0.35% cholesterol feed, control 7.65) was 6.50 mmol/L and the “Changes from the control in %” value (total serum cholesterol vs control group) was 15%.
